# In article PMC8512147, “Multifunctional Small Molecules as Potential Anti-Alzheimer’s Disease Agents” (Molecules, 2021):
# Assays:
# [1] = Radical scavenging activity, DPPH method; format: biochemical; details: MeOH, 30 min, r.t., mean ± SD of 3 independent experiments
# Text: Commercial ferulic acid (FA) and all the newly synthesized compounds 1a–e were studied for their radical scavenging activity, following the protocol previously reported. The activity of each compound is expressed as EC50 and is related to its interaction with the free stable radical 2,2-diphenyl-1-picrylhydrazyl (DPPH•).
# For the physicochemical and biological studies, analytical grade reagents and solvents were supplied by Sigma-Aldrich (St. Louis, MO, USA), Fluka (Buchs, Switzerland) and Acros (Geel, Belgium). They were used as received without any purification. The antioxidant activity assay was performed in a quartz cell of 1 cm path length with a Perkin-Elmer Lambda 35 UV–Vis spectrophotometer equipped with a temperature programmer PTP1+1 Peltier System (T = 25.0 ± 0.1 °C).
# Compounds were evaluated for their radical scavenging activity by the Blois method using DPPH (2,2-diphenyl-1-picrylhydrazyl), a stable free-radical. It absorbs in methanol solution at 517–520 nm and it is a scavenger for other radicals converting itself in the reduced form DPPHH. The assay consists of preparing solutions of increasing concentration of each compound starting from a stock solution (2–3 × 10^−4 M), adding to them 2.5 mL DPPH (0.002% in MeOH, 50–100 µM) and the necessary volume of MeOH to reach the final volume 3.5 mL for each sample. The control sample was made up of DPPH and MeOH. Solutions were protected from light at r.t. for 30 min and then absorbance was measured at 517 nm with a Perkin Elmer Lambda 35 UV–Vis spectrophotometer, using methanolic solution as the blank in the other cell. All the studied compounds have good solubility in MeOH, so their solutions could be prepared. The assay was repeated three times for all compounds and the antioxidant activity, expressed as EC50, was calculated by Equation (1). %AA = ((ADPPH − Asample)/ADPPH) × 100,(1)
# [2] = Cu^2+ complexation, potentiometric / spectrophotometric titration; format: physicochemical; details: for log β (CumHhLl), species (1–12) / log β (CumHhLl), species (101): UV–Vis (1a, 1d); for pM (Cu^2+), pM = −log [M]: pH 7.4, CL/CM = 10, CM = 10^−6 M
# Text: (§1) The chelating ability of FA and of selected compounds 1a and 1d was studied by using the same experimental techniques (potentiometry, UV–Vis spectrophotometry) and experimental medium used for the titration of the ligand alone (20% w/w DMSO/water).
# (§2) Alterations in the deprotonation profiles of the ligand titration curves due to the presence of the metal ions are evident in Figure 2, since the curves for the M/L systems appear well below that of FA for a > −1 (M = Fe) or a > 0 (M = Cu). This evidence supports the formation of metal complexes with the deprotonated (L^−) and mono-protonated (HL) forms of the ligand, whose stability order (Fe > Cu) follows the expected trend. Equilibrium models obtained from the fitting analysis of the potentiometric curves (M = Fe, Cu) and the UV–Vis spectral data (M = Fe, Cu) are reported in Table 2.
# (§3) Both compounds 1a and 1d have similar chelating capacities towards iron and copper, which are also analogous to those of FA.
# (§4) As concerns the metal chelation studies, potassium hydrogen phthalate (C8H5KO4, p.a.) was acquired from BDH, whereas dimethylsulfoxide (DMSO, dried, p.a.) and potassium chloride (KCl, p.a.) were supplied by Sigma-Aldrich. Aqueous solutions of metal ions were prepared starting from 1000 ppm standards (Titrisol, Sigma-Aldrich), to obtain solutions FeCl3 0.018 M and CuCl2 0.015 M. The metal content of solutions was evaluated by atomic absorption. Iron stock solution was prepared with an excess of acid chloride to avoid hydrolysis and its concentration in HCl was determined by the usual standard-addition method using 0.1M HCl (Titrisol). The 0.1M HCl solution, used in calibration of the glass electrode and in spectrophotometric titrations, was prepared from a Titrisol ampoule. The titrant was prepared from carbonate free commercial concentrate (Titrisol, KOH 0.1 M ampoules). The KOH solution was standardized by titration with a solution of potassium hydrogen phthalate using Gran’s method and it was rejected when the percentage of carbonate was greater than 0.5% of the total amount of base. The potentiometric studies were performed with an automated potentiometric apparatus controlled by PASAT program and containing a Crison micropH 2002 millivoltmeter, a Crison microBu 2031 burette and a Haake thermostatic bath (T = 25.0 ± 0.1 °C). The spectrophotometric titrations were carried out with a Perkin-Elmer Lambda 35 spectrophotometer.
# (§5) Both glass and Ag/AgCl reference electrodes were previously conditioned in different DMSO/H2O mixtures of increasing DMSO % concentration and the response of the glass electrode was evaluated by strong acid–strong base (HCl/KOH) calibrations with the determination of the Nernst parameters by Gran’s method. […] The spectrophotometric measurements were carried out in a 250–450 nm wavelength range at pH ca. 2.5–11.8. Under the stated experimental conditions, the pKw value (14.27) was determined and subsequently used in the computations. The stepwise protonation constants of the ligands, Ki = [HiL]/[Hi-1L][H], and the overall metal complex stability constants, β (MmHhLl) = [MmHhLl]/[M]^m[H]^h[L]^l, were calculated by fitting the pH-potentiometric and spectrophotometric data with, respectively, the Hyperquad 2008 [41] and Psequad programs. The metal hydrolysis model was determined under the defined experimental conditions (I = 0.1 M KCl, 20% w/w DMSO/H2O, T = 25.0 ± 0.1 °C) and the following values of stability constants were included in the fitting of experimental data towards the equilibrium models related to the Fe^3+/L and Cu^2+/L systems: log β (FeH-2) = −6.78, log β (FeH-3) = −10.78; log β (Cu2H-2) = −9.94. The species distribution curves were obtained with the Hyss program.
# [3] = Fe^3+ complexation, potentiometric / spectrophotometric titration; format: physicochemical; details: for log β (FemHhLl), species (101) / log β (FemHhLl), species (102): pH-potentiometric (FA), UV–Vis (1a, 1d); for pM (Fe^3+), pM = −log [M]: pH 7.4, CL/CM = 10, CM = 10^−6 M
# Text: as §1, §2, §3, §4, §5
# [4] = T = 25.0 ± 0.1 °C, I = 0.1 M KCl, 20% w/w DMSO/water, pH-potentiometric (FA)
# [5] = T = 25.0 ± 0.1 °C, I = 0.1 M KCl, 20% w/w DMSO/water
SMILES,EC50 [1],"log β (CumHhLl), species (1–12) [2, 4]","log β (CumHhLl), species (101) [2, 4]","log β (CumHhLl), species (102) ([2]; T = 25.0 ± 0.1 °C, I = 0.1 M KCl, 20% w/w DMSO/water, pH-potentiometric (FA), UV–Vis (1d))","pM (Cu^2+), pM = −log [M] [2]",melting point,"log β (FemHhLl), species (1–22) [3, 5]","log β (FemHhLl), species (101) [3, 5]","log β (FemHhLl), species (102) [3, 5]","pM (Fe^3+), pM = −log [M] [3]","log β (CumHhLl), species (1–21) ([2]; T = 25.0 ± 0.1 °C, I = 0.1 M KCl, 20% w/w DMSO/water, UV–Vis spectrophotometric data)","FeL in the Fe^3+/L system ([3]; pH ca. 2, species distribution)"
"COc1cc(/C=C/C(=O)NOCc2cccc(Cl)c2)ccc1O [Compound 1d, (E)-N-((3-chlorobenzyl)oxy)-3-(4-hydroxy-3-methoxyphenyl)acrylamide]",33 ± 1 µM,2.20(8),7.49(7),12.14(7),7.0,47 to 48 °C,8.50(5),15.42(7),25.43(5),18.2,,
"COc1cc(/C=C/C(=O)NOCc2ccccc2OC)ccc1O [Compound 1a, (E)-3-(4-hydroxy-3-methoxyphenyl)-N-((2-methoxybenzyl)oxy)acrylamide]",34 ± 1 µM,1.12(5),6.27(7),,6.3,58 °C,,16.49(3),23.69(4),17.6,−13.16(7),100%
